Laboratory results as given in publication PMC11871066, “Structure-based discovery of hydrocarbon-stapled paxillin peptides that block FAK scaffolding in cancer” (Nature Communications, 2025).
Where two headings read alike, the source gives them in different places. One block for each compound: values may come before it. Bridge positions count the residues as written; N and C are the ends. Square brackets hold non-standard residues; d marks the D form. Peptide text beside a SMILES is read from it. R8 = C=CCCCCCC[C@@](C)(N)C(=O)O; S5 = C=CCCC[C@](C)(N)C(=O)O

What was measured:
trypsin [1] = target: trypsin (Bos taurus, UniProt P00760)
trypsin (Bos taurus, UniProt P00760), sequence (P00760 24-246): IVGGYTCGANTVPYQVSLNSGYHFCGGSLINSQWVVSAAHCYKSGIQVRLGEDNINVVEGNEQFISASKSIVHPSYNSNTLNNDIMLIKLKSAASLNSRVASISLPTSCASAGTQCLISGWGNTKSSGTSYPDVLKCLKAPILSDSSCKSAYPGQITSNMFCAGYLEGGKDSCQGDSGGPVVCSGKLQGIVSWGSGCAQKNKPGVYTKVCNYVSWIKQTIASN
Method: (§1) Cell permeability of peptide drugs was determined by fluorescence measurement of TAMRA-labeled peptides in 96-well plates and ClarioStar Plus plate reader using BMG ClarioStar MARS software (version 4.20). […] Percent uptake was calculated as background-subtracted fluorescence absorbed by cells/fluorescence of peptide in media-only wells, then made relative to TAMRA-Alkyne. Three biological replicates (n = 3) were performed per cell line per treatment group. Peptide proteolysis was measured using immobilized Trypsin-agarose resin (Thermo Fisher) and quantification by LC-MS. […] In vivo pharmacokinetics were performed by the UACC Analytical Chemistry Shared Resource. […] The mice were fed NIH-31 irradiated pellets (Tekland Premier, Madison, Wisconsin), and reverse osmosis water was freely available. […] The average plasma concentration versus time data were analyzed using PKSolver (version 2.0) by a noncompartmental approach.

trypsin [2] = assay: in vitro; conditions: isolated enzyme trypsin
Method: as §1

trypsin [3] = assay: Trypsin proteolytic resistance assay; conditions: immobilized trypsin-agarose resin
Method: as §1

FAK FAT domain = target: T1, FAK FAT domain (Homo sapiens, UniProt Q05397); assay: SPR binding to immobilized biotinylated FAK FAT
T1 sequence (Q05397 914-1045 limits assumed): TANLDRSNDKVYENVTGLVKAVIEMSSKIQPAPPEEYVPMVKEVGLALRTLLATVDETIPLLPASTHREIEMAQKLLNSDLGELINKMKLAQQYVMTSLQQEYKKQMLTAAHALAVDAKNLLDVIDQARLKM
Method: SPR binding studies were performed using biotinylated FAK FAT protein[51]. Briefly, SPR binding assays were performed on a ForteBio Pioneer FE SPR system using SPR running buffer (100 mM Tris-Cl pH 8.0, 200 mM NaCl, and 0.05% Tween-20). […] Desired immobilization levels were determined utilizing the following Eq. 1:1 Rmax=RproteinxMranalyte/MrproteinxVprotein where Rmax is the highest possible response of binding between the analyte and the protein, Rprotein is the change in response by the immobilization of the protein, Mr represents the mass of the analyte or protein, and Vprotein represents the number of binding sites on the protein. A target Rmax of approximately 100 RU was chosen.
All samples were diluted in the SPR buffer to a volume of 200 µl and injected using the OneStep gradient injection system at a flow rate of 150 µl/min. For a bulk standard control, a 3% (w\v) solution of sucrose in SPR buffer was used for injection. […] SPR data analysis utilized Qdat software (ForteBio, version 4.3.2 build 8) for normalization of the baseline prior to injection, channel alignment, and reference channel and blank subtraction.

[4] = Circular dichroism, % alpha-helicity; type: physicochemical; conditions: CD, 20 mM NaH2PO4 pH 7.0, 20 °C, CDSSTR
Method: CD experiments were performed on a Jasco J-815 CD spectrometer equipped with a Jasco PTC-423S/15 temperature control and analysis utilizing Spectra Manager (version 2.0). Spectral measurements were made in quartz spectrophotometer cells with an optical cell path length of 1.0 mm (Starna Cells Inc.) using standard collection parameters: 20 °C, 190–260 nm, 0.5 nm step resolution, 50 nm/min scanning speed, 0.5 s response, 1 nm bandwidth, 8 accumulations. […] Secondary structure analysis, including % alpha-helicity, was performed using the CDSSTR method[58] on data reference set 4 basis spectra. The reliability of secondary structure predictions was quantified by the goodness-of-fit of the back-calculated spectrum to the experimental spectrum and reported as a normalized root-mean-square deviation (NRMSD).

[5] = target: T2, FAK FAT / TAMRA-paxillin LD2 L10D (Homo sapiens, UniProt Q05397); assay: Fluorescence polarization competition (FAK-paxillin) assay; type: binding
T2 construct: assay was performed using FAK FAT protein and TAMRA-LD2 L10D peptide
T2 sequence (Q05397 919-1052): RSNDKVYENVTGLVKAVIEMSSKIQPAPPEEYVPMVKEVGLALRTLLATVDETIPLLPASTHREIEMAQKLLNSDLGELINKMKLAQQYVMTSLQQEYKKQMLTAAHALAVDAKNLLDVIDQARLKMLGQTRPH
Method: The IC50 was calculated using a four-parameter dose-response inhibition model, with the bottom fit constrained to the lower plateau of the binding curve.

SMILES: CC(=O)N[C@@H](CC(N)=O)C(=O)N[C@@H](CC(C)C)C(=O)N[C@@H](CO)C(=O)N[C@@H](CCC(=O)O)C(=O)N[C@@H](CC(C)C)C(=O)N[C@@H](CC(=O)O)C(=O)N[C@@H](CCCNC(=N)N)C(=O)N[C@@H](CC(C)C)C(=O)N[C@@H](CC(C)C)C(=O)N[C@@H](CC(C)C)C(=O)N[C@@H](CCC(=O)O)C(=O)N[C@@H](CC(C)C)C(=O)N[C@@H](CC(N)=O)C(N)=O [LD2, reference compound]
trypsin proteolysis t1/2 (trypsin [1]): 46.8 min
half-life at 100 µM (trypsin [2]): 47 min
remaining at 0.25 h, 100 µM (trypsin [3]): 76%
remaining at 0.5 h, 100 µM (trypsin [3]): 70%
remaining at 1 h, 100 µM (trypsin [3]): 29%
remaining at 2 h, 100 µM (trypsin [3]): 16%
remaining at 3 h, 100 µM (trypsin [3]): 16%
remaining at 4 h, 100 µM (trypsin [3]): 13%
remaining at 6 h, 100 µM (trypsin [3]): 0%
remaining at 7 h, 100 µM (trypsin [3]): 0%
remaining at 24 h, 100 µM (trypsin [3]): 0%
remaining at 48 h, 100 µM (trypsin [3]): 0%

Kd (FAK FAT domain; Rep2, read-out: SPR (KD)): 35.6 µM
helical content [4]: 70%
SMILES: C=CCCCCCC[C@@](C)(NC(=O)[C@H](CC(C)C)NC(=O)[C@H](CC(N)=O)NC(C)=O)C(=O)N[C@@H](CCC(=O)O)C(=O)N[C@@H](CC(C)C)C(=O)N[C@@H](CC(=O)O)C(=O)N[C@@H](CCCNC(=N)N)C(=O)N[C@@H](CC(C)C)C(=O)N[C@@H](CC(C)C)C(=O)N[C@@](C)(CCCC=C)C(=O)N[C@@H](CCC(=O)O)C(=O)N[C@@H](CC(C)C)C(=O)N[C@@H](CC(N)=O)C(N)=O [compound 2013]

Kd (FAK FAT domain; Rep1, read-out: SPR (KD)): > 200 µM
Kd (FAK FAT domain; Rep2, read-out: SPR (KD)): > 200 µM
Kd (FAK FAT domain; Rep3, read-out: SPR (KD)): > 200 µM
Kd (FAK FAT domain; Rep4, read-out: SPR (KD)): > 200 µM
SPR KD (FAK FAT domain; one-site kinetic fit, mean ± SD of n = 2-5 biological replicates, Tris pH 8.0): did not bind FAT
Kd (FAK FAT domain; one-site kinetic fit, mean ± SD of n = 2-5 biological replicates, Tris pH 8.0, read-out: SPR KD): > 200 µM
SMILES: CC(=O)N[C@@H](CC(N)=O)C(=O)N[C@@H](CC(C)C)C(=O)N[C@]1(C)CCCCCCC=CCCC[C@@](C)(C(=O)N[C@@H](CCC(=O)O)C(=O)N[C@@H](CCC(=O)O)C(=O)N[C@@H](CC(N)=O)C(N)=O)NC(=O)[C@H](CC(C)C)NC(=O)[C@H](CC(C)C)NC(=O)[C@H](CCCNC(=N)N)NC(=O)[C@H](CC(=O)O)NC(=O)[C@H](CCC(=O)O)NC(=O)[C@H](CCC(=O)O)NC1=O [compound 2014] (Ac-NL[R8]EEDRLL[S5]EEN-NH2; staple 3-10)
FP Ki ([5]; 25 µM FAT, 0.1 µM probe, 3 h, mean ± SD, n = 3): did not bind FAT
Ki ([5]; Rep1, read-out: FP (Ki) data): > 1250 µM
